In one assay the test system is Raji cells. Put plainly: Caspase 3/7 activity assay. It is filed as cell-based, human. On the procedure:
Simultaneous targeting of PI3Kδ and a PI3Kδ-dependent MEK1/2-Erk1/2 pathway for therapy in pediatric B-cell acute lymphoblastic […]
Cells were treated as indicated conditions and then subjected to lysate to perform standard Western blot as described previously1. Briefly, whole-cell lysates and SDS-loading buffer diluted cell fractions were analyzed on SDS-PAGE gels. Transfer to nitrocellulose membranes, nonfat milk blocking, probing with indicated primary antibodies and the corresponding HRP-conjugated second antibodies.
Chemiluminescence were performed and captured using ImageQuant LAS 4000 (GE healthcare Life Sciences, Piscataway, NJ, USA) and band intensity was measure both with ImageQuant™ TL (GE Healthcare Life Sciences) 2.
Caspase 3/7 activity assay
Raji cells were treated with or without X-370 at 1 μM, 5μM and 10 μM for 24, 48 and 72 hours, thenwere measured using the Caspase-Glo® 3/7 Assay (Promega, US) following the protocol and relative caspase-3/7 activity was normalized to cell number which DMSO control was the base line.
5-bromo-2'-deoxyuridine (BrdU) incorporation Assay
5-bromo-2'-deoxyuridine (BrdU) incorporation was performed using FITC BrdU Flow Kit (BD Pharmingen, San Diego, CA) according to the provided protocol.
Figure S1;. CAL-101 docked to the crystal structure of PI3Kδ. […]

Assay [1] has as its system PI3Kγ (MCP-1-stimulated THP-1 monocytes). Put plainly: MCP-1-stimulated Akt phosphorylation in THP-1 cells. It is filed as cell-based. The conditions noted are these: MCP-1 100 ng/ml. As for the experimental part:
In fibroblasts, signals from the insulin-like growth factor 1 (IGF-1) receptor are mediated by PI3Kα, while lysophosphatidic acid (LPA) stimulates G-protein coupled receptor (GPCR) signals via PI3Kβ[26]. After being pre-incubated with X-370, murine embryonic fibroblasts cultured in serum-free medium were stimulated with IGF-1 or LPA. […] Either PI3Kδ or PI3Kγ can be activated in THP-1 monocytes dependent on the stimulating ligand, among which macrophage colony stimulating factor (M-CSF/CSF-1) activates RTK-coupled PI3Kδ, while monocyte chemoattractant protein-1 (MCP-1) activates PI3Kγ [24]. Accordingly, THP-1 cells cultured in serum-free medium were stimulated with MCP-1 or M-CSF in the presence of X-370 and phosphorylated Akt was measured.
Cell lysates were probed with indicated antibodies. The IC50 values were calculated based on relative band intensity measured with ImageQuant™ TL (GE Healthcare Life Sciences, Piscataway, NJ) (B). Data shown are mean values from three independent experiments. (C, D, E, F) X-370 blocked stimuli-triggered PI3Kδ activation. MEF cells and THP-1 were starved in serum-free medium for 12 h or 4 h respectively and X-370 were added for an additional 1 h treatment following stimulation of IGF-1 at 100 ng/ml for MEF cells (C), LPA at 10 μM for MEF cells (D), MCP-1 at 100ng/ml for THP-1 (E) and M-CSF at 50 ng/ml for THP-1 (F). […]

In the case of `O=C(N1CCCC1)N1CCC(n2cnc3c(-n4c(C(F)F)nc5ccccc54)nc(N4CCOCC4)nc32)CC1` [X-370], the “concentration at which caspase 3/7 activity increased” value in the assay on Raji cells is no less than 5 µM. Besides, the “MCP-1-stimulated Akt phosphorylation” value in assay [1] was “much less activity”.
